Measurements taken from US9790135B2, “Use of acylated carbonic esters of glycerol in agriculture” (AGRONUTRITION, priority 2013, dated 2017).
Each block holds one compound with its values, some of them ahead of it.

What was measured:
[1] = Stability of the concentrated colloidal suspension towards sedimentation; assay type: physicochemical; conditions: concentrated colloidal suspension of MnCO3 (and MnSO4) in glycerol/water with the adjuvant
Experimental: The concentrated colloidal suspension is stable towards sedimentation over time—in particular over a period of 12 months—and is capable of being stored at a temperature of from −50° C. to +50° C. without any alteration of its rheological properties or of the stimulating and/or nutritive properties of the nutritive composition obtained by dilution of the concentrated colloidal suspension. Such a concentrated colloidal suspension can therefore be proposed for sale, marketed and distributed while retaining the stimulating and/or nutritive properties of the nutritive composition.
Cyclic glycerol carbonate (CG) of formula (VI), glycerol, water and manganese carbonate (MnCO3) in the form of a solid in the divided state, the solid particles of which have a mean size of approximately 2 μm, are mixed.

soya = assay: Foliar manganese content of soya after foliar application of nutritive MnCO3 compositions; conditions: soya crop, 500 g manganese carbonate per hectare
[2] = tested on: winter common wheat (variety Quality, ARVALIS); assay: Manganese content retained in leaves of treated winter common wheat; assay type: in vivo
Experimental: A powder of manganese carbonate (MnCO3, CAS 598-62-9) having a mean particle size of substantially approximately 2 μm is prepared by grinding. A concentrated colloidal suspension comprising 58.7% of this powder in a liquid composition comprising 1.5% glycerol carbonate acetate (ECG-C2, as described in Example 3 and in Table 1), […], 7.5% water and 1% jojoba oil, the indicated percentages being percentages by mass. The concentrated colloidal suspension is diluted in water to form a treatment composition (Mn385) according to the invention which is suitable for applying, by spraying on the cultivated surface area, a quantity of manganese carbonate of 385 g per hectare of cultivated surface area.
There are also prepared: • a concentrated colloidal suspension as described in Example 4, and this concentrated colloidal suspension is diluted in water to form a nutritive composition (Mn457) according to the invention which is suitable for applying, by spraying, a quantity of manganese carbonate of 457 g per hectare of surface area; and • a concentrated colloidal suspension as described in Example 7, and this concentrated colloidal suspension is diluted in water to form a nutritive composition (Mn509) according to the invention which is suitable for applying, by spraying, a quantity of manganese carbonate of 509 g per hectare of cultivated surface area.
The nutritive compositions Mn385, Mn457 and Mn509 according to the invention are applied by spraying to plots of 4 parcels having a surface area of 16 m^2 cultivated with winter common wheat (variety “Quality”, ARVALIS).
There are also prepared in parallel: • on a plot of 4 16 m^2 parcels, a crop of winter common wheat treated by spraying with water, as negative control; and • on a plot of 4 16 m^2 parcels, a crop of winter common wheat treated with MnCO3 on its own (without adjuvant according to the invention) at a rate of 500 g per hectare, as control treatment; and • on a plot of 4 16 m^2 parcels, a crop of winter common wheat treated, by way of comparison, with a formulation of MANTRAC 500 at a rate of 500 g of MnCO3 per hectare.
The manganese content retained in the leaves of treated common wheat is measured one day (D+1), seven days (D+7), 14 days (D+14) and 21 days (D+21) after application. To that end, the leaves are removed and washed three times with water to remove the manganese carbonate that has not been absorbed by the plant, and the manganese absorbed into the leaves is then assayed. The results are given in Table 2 below and are expressed in ppm (μg of manganese per gram of leaf).
The kinetics of daily MnCO3 assimilation in the leaves are measured.

Compound: CCCCCCCCC(=O)OCC1COC(=O)O1 (stereo not drawn) [ECG-C9, cyclic α/α′-nonanoylated glycerol carbonic ester]
- stability of the concentrated colloidal suspension (settling of particles) [1]: stable over time

Compound: CCCCCCC(=O)OCC1COC(=O)O1 (stereo not drawn) [ECG-C7, cyclic α/α′-heptanoylated glycerol carbonic ester]
- stability of the concentrated colloidal suspension (settling of particles) [1]: stable over time

Compound: CC(=O)OCC1COC(=O)O1 (stereo not drawn) [ECG-C2, cyclic α/α′-acetylated glycerol carbonic ester]
- stability of the concentrated colloidal suspension (settling of particles) [1]: stable over time

Compound: manganese carbonate [MnCO3 on its own]
- results relative to the negative control (water) (in words) ([2]; 500 g per hectare, without adjuvant): do not differ from the results obtained with the negative control
- manganese content retained in the leaves, D + 14 ([2]; 14 days after application): 112.50 +/− 45.35 ppm (μg of manganese per gram of leaf)
- manganese content retained in the leaves, D + 21 ([2]; 21 days after application): 95.43 +/− 5.95 ppm (μg of manganese per gram of leaf)
- manganese content retained in the leaves, D + 1 ([2]; one day after application, leaves washed three times with water): 84.83 +/− 28.01 ppm (μg of manganese per gram of leaf)
- manganese content retained in the leaves, D + 7 ([2]; seven days after application): 74.83 +/− 19.14 ppm (μg of manganese per gram of leaf)

Now from value to compound, other results behind:

- stability of the concentrated colloidal suspension (settling of particles) [1]: stable over time
Compound: C=CCCCCCCCCC(=O)OCC1COC(=O)O1 (stereo not drawn) [ECG-C11:1, cyclic α/α′-undecylenoylated glycerol carbonic ester]

- stability of the concentrated colloidal suspension (settling of particles) [1]: stable over time
Compound: CCCCCCCC/C=C\CCCCCCCC(=O)OCC1COC(=O)O1 (stereo not drawn) [ECG-C18:1, cyclic α/α′-oleylated glycerol carbonic ester]
- foliar manganese content reached (maximum) up to four days after application (soya): greater than 250 ppm
